Assay results taken from publication PMC4440778, “Structure-Activity Relationship and Mode of Action of a Frog Secreted Antibacterial Peptide B1CTcu5 Using Synthetically and Modularly Modified or Deleted (SMMD) Peptides” (PLoS ONE, 2015).
Values after ≈ are worked out from the molar mass of the structure shown. Where a SMILES comes first, the peptide text is derived from it. Bridges are numbered along the chain shown (N, C = ends).

Columns and labels:
E. coli MG 1655 = settings: MG 1655, 24 h
Description: (§2) Bacterial cultures were grown in Luria Bertani broth (Hi-media) by overnight incubation at 37°C with constant shaking. Microbial cultures having 10^6 CFU/ml were made from OD 0.6 culture. Respective peptide stock concentration (1mg/ml) were prepared in sterile water and diluted in LB broth to make concentrations ranging from 1–200 μg/ml. Bacterial culture (50 μl) was treated with 50 μl of individual peptide amide solution of various concentrations and incubated for 24 h at 37°C with constant shaking in a 96 well microtitre plate. […] The minimum inhibitory concentration (MIC) was taken as the dose at which 100% of growth inhibition was observed and was calculated from the graph. MIC was calculated from independent experiments performed in triplicate.

B. coagulans ATCC 7050 = settings: ATCC 7050, 24 h
Description: as §2

[1] = system: V. cholerae (clinical isolates); settings: 24 h
Description: as §2

skin cancer cells (A431) = assay type: cell-based, human
Description: (§1) Cytotoxicity of the peptides against human embryonic kidney (HEK) cells, skin cancer cells (A431) and PBMCs were evaluated by 3-[4, 5-dimethylthiazol-2-yl]-2, 5-diphenyl tetrazolium bromide (MTT) assay. Peptide solution prepared in less than 0.2% DMSO (10–100 μg/ml) was treated with initially seeded 10,000 cells per well for HEK and A431 cells. To assess peptide cytotoxicity in PBMCs, MTT assay was performed by adding different concentrations of the respective peptides to 96 well plate containing 40,000 PBMCs per well, in triplicate. The conversion of MTT into […] was determined by measuring the absorbance at 570 nm.

P. aeruginosa ATCC 27853 = settings: ATCC 27853, 24 h
Description: as §2

B. subtilis MTCC 14416 = settings: MTCC 14416, 24 h
Description: as §2

PBMCs = assay type: cell-based, human
Description: Peripheral blood mononuclear cells (PBMCs) were isolated from heparanised blood of healthy individuals. Five milliliter of blood was diluted with PBS (pH 7.4), and layered above 5 ml of histopaque and centrifuged at 1200 rpm for 30 min at room temperature. The upper layer was discarded, and the interphase containing PBMCs were carefully withdrawn and washed with PBS. It was centrifuged at 1500 rpm at room temperature for 10 min, the pellets were resuspended in RPMI medium and the cells were counted.
as §1

[2] = system: human embryonic kidney (HEK) cells; assay type: cell-based
Description: as §1

S. aureus ATCC 9542 = settings: ATCC 9542, 24 h
Description: as §2

Compound: CC[C@H](C)[C@@H]1NC(=O)[C@H](CCCCN)NC(=O)[C@@H](NC(=O)[C@H](CC(C)C)NC(=O)[C@@H](NC(=O)[C@H](CCC(N)=O)NC(=O)[C@@H]2CCCN2C(=O)[C@H](CC(C)C)NC(=O)[C@H](Cc2ccccc2)NC(=O)[C@H](CC(N)=O)NC(=O)[C@H](C)NC(=O)[C@H](C)NC(=O)[C@H](CC(C)C)NC(=O)CNC(=O)[C@H](C)NC(=O)[C@@H](NC(=O)[C@@H](N)CCCCN)[C@@H](C)CC)[C@@H](C)CC)CSSC[C@@H](C(N)=O)NC(=O)[C@H](CCCCN)NC(=O)[C@H](CCCNC(=N)N)NC(=O)[C@H](C)NC1=O [B1CTcu5K] (H-KIAGLAANFLPQILCKIARKC-NH2; disulfide 15-21)
- MIC (E. coli MG 1655): 25 µg/mL (≈ 11 µM)
- MIC (B. coagulans ATCC 7050): 12.5 µg/mL (≈ 5.51 µM)
- MIC [1]: 25 µg/mL (≈ 11 µM)
- CC 50 (skin cancer cells (A431)): >100 µg/mL
- MIC (P. aeruginosa ATCC 27853): >100 µg/mL
- MIC (B. subtilis MTCC 14416): 100 µg/mL (≈ 44.1 µM)
- CC 50 (PBMCs): >100 µg/mL
- CC 50 [2]: >100 µg/mL
- MIC (S. aureus ATCC 9542): 12.5 µg/mL (≈ 5.51 µM)

Compound: CC[C@H](C)[C@@H]1NC(=O)[C@H](CCCCN)NC(=O)[C@@H](NC(=O)[C@H](CC(C)C)NC(=O)[C@@H](NC(=O)[C@H](CCC(N)=O)NC(=O)[C@@H]2CCCN2C(=O)[C@H](CC(C)C)NC(=O)[C@H](Cc2ccccc2)NC(=O)[C@H](CC(N)=O)NC(=O)[C@H](C)NC(=O)[C@H](C)NC(=O)[C@H](CC(C)C)NC(=O)CNC(=O)[C@H](C)NC(=O)[C@@H](NC(=O)[C@@H](N)CCCNC(=N)N)[C@@H](C)CC)[C@@H](C)CC)CSSC[C@@H](C(N)=O)NC(=O)[C@H](CCCCN)NC(=O)[C@H](CCCNC(=N)N)NC(=O)[C@H](C)NC1=O [B1CTcu5R] (H-RIAGLAANFLPQILCKIARKC-NH2; disulfide 15-21)
- MIC (E. coli MG 1655): 25 µg/mL (≈ 10.9 µM)
- MIC (B. coagulans ATCC 7050): 12.5 µg/mL (≈ 5.44 µM)
- MIC [1]: 12.5 µg/mL (≈ 5.44 µM)
- CC 50 (skin cancer cells (A431)): >100 µg/mL
- MIC (P. aeruginosa ATCC 27853): >100 µg/mL
- MIC (B. subtilis MTCC 14416): 50 µg/mL (≈ 21.8 µM)
- CC 50 (PBMCs): 96.1 ± 1.22 µg/mL (≈ 41.8 µM)
- CC 50 [2]: >100 µg/mL
- MIC (S. aureus ATCC 9542): 25 µg/mL (≈ 10.9 µM)

Compound: CC[C@H](C)[C@@H]1NC(=O)[C@H](CCCCN)NC(=O)[C@@H](NC(=O)[C@H](CC(C)C)NC(=O)[C@@H](NC(=O)[C@H](CCC(N)=O)NC(=O)[C@@H]2CCCN2C(=O)[C@H](CC(C)C)NC(=O)[C@H](Cc2ccccc2)NC(=O)[C@H](CC(N)=O)NC(=O)[C@H](C)NC(=O)[C@H](C)NC(=O)[C@H](CC(C)C)NC(=O)CNC(=O)[C@H](C)NC(=O)[C@@H](NC(=O)[C@@H](N)Cc2c[nH]c3ccccc23)[C@@H](C)CC)[C@@H](C)CC)CSSC[C@@H](C(N)=O)NC(=O)[C@H](CCCCN)NC(=O)[C@H](CCCNC(=N)N)NC(=O)[C@H](C)NC1=O [B1CTcu5W] (H-WIAGLAANFLPQILCKIARKC-NH2; disulfide 15-21)
- MIC (E. coli MG 1655): 100 µg/mL (≈ 43 µM)
- MIC (B. coagulans ATCC 7050): 12.5 µg/mL (≈ 5.37 µM)
- MIC [1]: 25 µg/mL (≈ 10.7 µM)
- CC 50 (skin cancer cells (A431)): >100 µg/mL
- MIC (P. aeruginosa ATCC 27853): >100 µg/mL
- MIC (B. subtilis MTCC 14416): 50 µg/mL (≈ 21.5 µM)
- CC 50 (PBMCs): 74.5 ± 2.44 µg/mL (≈ 32 µM)
- CC 50 [2]: >100 µg/mL
- MIC (S. aureus ATCC 9542): 12.5 µg/mL (≈ 5.37 µM)

Compound: CC[C@H](C)[C@@H]1NC(=O)[C@H](CCCCN)NC(=O)[C@@H](NC(=O)[C@H](CC(C)C)NC(=O)[C@@H](NC(=O)[C@H](CCC(N)=O)NC(=O)[C@@H]2CCCN2C(=O)[C@H](CC(C)C)NC(=O)[C@H](Cc2ccccc2)NC(=O)[C@H](CC(N)=O)NC(=O)[C@H](C)NC(=O)[C@H](C)NC(=O)[C@H](CC(C)C)NC(=O)CNC(=O)[C@H](C)NC(=O)[C@@H](NC(=O)[C@@H](N)CC(C)C)[C@@H](C)CC)[C@@H](C)CC)CSSC[C@@H](C(N)=O)NC(=O)[C@H](CCCCN)NC(=O)[C@H](CCCNC(=N)N)NC(=O)[C@H](C)NC1=O [Cyclic B1CTcu5] (H-LIAGLAANFLPQILCKIARKC-NH2; disulfide 15-21)
- MIC (E. coli MG 1655): 25 µg/mL (≈ 11.1 µM)
- MIC (B. coagulans ATCC 7050): 15 µg/mL (≈ 6.66 µM)
- MIC [1]: 25 µg/mL (≈ 11.1 µM)
- CC 50 (skin cancer cells (A431)): >100 µg/mL
- MIC (P. aeruginosa ATCC 27853): >100 µg/mL
- MIC (B. subtilis MTCC 14416): 50 µg/mL (≈ 22.2 µM)
- CC 50 (PBMCs): 75.1 ± 1.46 µg/mL (≈ 33.3 µM)
- CC 50 [2]: >100 µg/mL
- MIC (S. aureus ATCC 9542): >100 µg/mL
